Measurements taken from article PMC10017700, “The SMARCA4^R1157W mutation facilitates chromatin remodeling and confers PRMT1/SMARCA4 inhibitors sensitivity in colorectal cancer” (NPJ Precision Oncology, 2023).

Assays:
[1] = system: SMARCA4-WT HCT116 cell line-derived xenograft; assay: CDX mouse model, SMARCA4-WT; assay type: in vivo, BALB/c female nude mice; details: oral, 14 days
Method: (§1) To establish cell line-derived xenograft (CDX) mouse models, 6-week-old BALB/c female nude mice were obtained from the Model Animal Research Center of Nanjing University (Nanjing, China). All animal experimental procedures were approved by the Animal Ethical and Welfare Committee of Nanjing University. Approximately 5 × 10^6 SMARCA4 wild-type or R1157W mutant HCT116 cells were injected subcutaneously into the right flank of each mouse. The mice were randomized into 4 groups (6 mice/group) when the tumor volume reached approximately 80 mm^3 (volume = 0.52 × length × width^2), at which point drug dosing every day was initiated. GSK-PTi (GSK3368715, HY-128717A, MCE)[32] and BBAi-1 (BRM/BRG1 ATP inhibitor-1, HY-119374, MCE)[33] were dissolved in 10% DMSO, 90% saline (containing 20% SBE-β-CD). GSK-PTi (25 mg/kg) and BBAi-1 (2.5 mg/kg) were administered orally. Body weight and tumor volume of the mice were measured every two days. Treatments were continued for 14 days, after which all mice were euthanized for analysis. Tumor tissues were weighed and prepared for immunoblotting or immunohistochemical staining. Tumor growth inhibition (TGI) rate was measured using the formula: TGI (%) = [1−(Vt−V0 in treated group)/Vt−V0 in vehicle group)]×100 where Vt is the volume on each day and V0 is the volume at the beginning of the treatment.

[2] = system: SMARCA4-R1157W mutant HCT116 cell line-derived xenograft; assay: CDX mouse model, SMARCA4-R1157W; assay type: in vivo, BALB/c female nude mice; details: oral, 14 days
Method: as §1

[3] = system: ATP (ATPase activity of SMARCA4); assay: ATPase kinetic assay (ATPase activity assay kit); assay type: biochemical
Method: An ATPase activity assay kit (#MAK113, Sigma,) was used to measure the Kinetic parameters (Vmax, Km, and Kcat) of SMARCA4 on ATP. In detail, SMARCA4-WT and -R1157W mutant proteins were incubated with saturating amounts of plasmid DNA and various concentrations of ATP. Reaction rates were determined by quantitating the fraction of ATP hydrolyzed at multiple time points. Kinetic parameters were determined by fitting the initial rate data to the Michaelis–Menten equation using the Origin software. All reactions were performed in triplicate.

SMARCA2 and SMARCA4 = details: SMARCA bromodomain inhibitor; cited from earlier work
Description: However, SMARCA2, another core subunit of the SWI/SNF complex with ATPase activity, also harbors a highly conserved HELICc domain (Supplementary Fig. 7a). […] It would be interesting to test whether other HELICc domain-containi ...

[4] = system: ATP (ATPase activity of SMARCA4); assay: ATPase assay, γ-32P ATP thin-layer chromatography; assay type: biochemical; details: in the presence of DNA, TLC, 30 °C, 0-90 min, Fig. 4b
Method: The ATPase assays were performed as described previously with modifications. The 20 μl reactions contained 50 mM Tris (pH 7.5), 50 mM NaCl, 8 mM MgCl2, 0.5 mM PMSF, 2 mM ATP, 2 mM DTT, and 1 μg of a 1 kb DNA fragment. The reaction was initiated by adding 1 μl of 10 mCi/ml [γ-^32P] ATP (3000 Ci/mmole; PerkinElmer) and 1 μg of SMARCA4 wild-type or mutant proteins. The reactions were then incubated at 30 °C for the indicated times (0, 15, 30, 60, and 90 min) and were stopped by the addition of 5 μl of 500 mM EDTA. One microliter of the reaction mixture was spotted onto PEI-cellulose TLC plates (Merck), and chromatography was run in 0.5 M LiCl, 1 M formic acid. The ratio of inorganic phosphate to ATP at each time point was quantified using a Molecular Dynamics Phosphorimager (Amersham Biosciences) and ImageQuant TL software.

mononucleosomes = assay: Nucleosome sliding assay; assay type: biochemical; details: 60 or 90 min, 30 °C, 2 mM ATP, Fig. 4c
Method: The nucleosome sliding assay was performed as previously described with several modifications[41],[47]. A 255 bp DNA template from the Widom 601 positioning sequence[48] was assembled into mononucleosomes by the “salt jump” method in the presence of core histones isolated from HeLa cells. Mononucleomes (100 ng DNA) were incubated with wild-type or mutant SMARCA4 proteins (100 ng) in 40 μl reactions containing 20 mM HEPES–NaOH (pH 7.9), 50 mM MgCl2, 1 mM DTT, 0.1 mM PMSF, 0.1 mg/ml BSA, 3% glycerol, 0.02% NP-40, 0.02% Triton X-100, 2 mM ATP at 30 °C for 0, 30, 60, or 90 min. Reactions were quenched by the addition of 20 mM EDTA and 1% glycerol. Samples were resolved by 6% native polyacrylamide/0.5×TBE gel electrophoresis and visualized by SYBR green staining (Invitrogen).

[5] = GSK-PTi 25 mg/kg and/or BBAi-1 2.5 mg/kg, daily, 6 mice/group
[6] = over 2-fold higher, Supplementary Fig. 5c, d
[7] = saturating plasmid DNA, various ATP concentrations, Michaelis–Menten fit, triplicate, mean ± SD

CCOCC1(COCC)CCC(c2[nH]ncc2CN(C)CCNC)CC1 [GSK-PTi]
tumor growth inhibition (TGI) rate [1, 5]: 23%
therapeutic effect of daily single treatment [1]: moderate therapeutic effect
tumor growth inhibition (TGI) rate [2, 5]: 45.3%
therapeutic effect of daily single treatment (versus SMARCA4-WT CDX) [2]: better therapeutic effect
effect in SMARCA4-R1157W mutant versus SMARCA4-WT model mice ([2]; daily, comparison of the two model mouse groups): no statistically significant differences

SMARCA4-WT mutant: as printed; probably misprint for SMARCA4-R1157W mutant protein
Kcat relative to SMARCA4-WT protein [3, 6]: over 2 fold
Vmax relative to SMARCA4-WT protein [3, 6]: over 2 fold

O=C(/C=C/N1C[C@H]2C[C@@H]1CN2c1ccccn1)c1ccccc1O [PFI-3]
differentiation between SMARCA2 and SMARCA4 (SMARCA2 and SMARCA4): could not differentiate between SMARCA2 and SMARCA4

SMARCA4-R1157W: R1157W mutant SMARCA4 protein
Kcat / Km ([3]; saturating plasmid DNA, various ATP concentrations): 17.47 M⁻¹ s⁻¹
Kcat [3, 7]: 0.00242 ± 6.7e-05 s⁻¹
Km [3, 7]: 138 ± 17.4 µM
Vmax [3, 7]: 241.6 ± 8.16 mM/min/mg
ATPase activity compared to SMARCA4-WT [4]: significantly augmented
lateral sliding of centrally positioned nucleosomes compared to SMARCA4-WT (mononucleosomes): further catalyzed lateral sliding of centrally positioned nucleosomes
